Experimental data published in paper PMC8899470 (Frontiers in Pharmacology, 2022).
Values joined by “and” are separate entries in the source; they are usually repeats but may differ in a detail not shown here. Equal entries are not always repeated.

How the values were obtained:
PLpro of MERS-CoV = conditions: ref Cho et al., 2013; cited from earlier work
PLpro of SARS-CoV = conditions: ref Cho et al., 2013; cited from earlier work
SARS-CoV = conditions: Vero E6 cells; ref Lin et al., 2018; cited from earlier work
Vero E6 cells = conditions: cited from earlier work
SARS CoV-2 PLpro = SARS CoV-2 PLpro (Severe acute respiratory syndrome coronavirus 2, UniProt P0DTD1); assay: biochemical; assay type: biochemical; conditions: for IC50: IC50, PLpro 0.3 µM, LKGGAMC substrate 40 µM, Tris-HCl pH 7.3, triplicate

In the case of CCN(CC)C(=S)SSC(=S)N(CC)CC [Disulfiram], the “Inhibitory effect on PLpro (mode)” value (PLpro of MERS-CoV) is given as “competitive inhibitory effect” and the “Inhibitory effect on PLpro (mode)” value (PLpro of SARS-CoV) is given as “competitive inhibitory effect”.

For Cc1ccc(N)cc1C(=O)N[C@H](C)c1cccc2ccccc12 [GRL0617], the “Inhibition of SARS-CoV replication” value (SARS-CoV) is given as “inhibit the replication process” and the Cytotoxicity (Vero E6 cells) is given as “no cytotoxicity”.

In the case of Cc1ccc(NC2CCNCC2)cc1C(=O)N[C@H](C)c1cccc2[nH]c3ccccc3c12 [hit 1], the IC50 (SARS CoV-2 PLpro) is reported as 2400 ± 600 nM.

With CCOC(=O)c1ccc(-c2cccc([C@@H](C)NC(=O)c3cc(NC4CNC4)ccc3C)c2)s1 [hit 2] the IC50 (SARS CoV-2 PLpro) was < 1000 nM and 600 nM and the “Inhibitory activity relative to positive control GRL0617” value (SARS CoV-2 PLpro; ratio of IC50 values against PLpro) was “about 4 times”.

Cc1ccc(NC2COC2)cc1C(=O)N[C@H](C)c1csc2ccccc12 [hit 3] gave an IC50 (SARS CoV-2 PLpro) of 2100 ± 500 nM.

In the case of Cc1ccc(NC2CCN(C(F)(F)F)CC2)cc1C(=O)N[C@H](C)c1cccc2ccccc12 [hit 4], the IC50 (SARS CoV-2 PLpro) is reported as < 1000 nM and 800 nM.
